Test results as given in the supplement of paper PMC10307832.

What was measured:
Test in all cases: relative viability (nuclei count vs DMSO), 5 days (fraction); higher = more cells survive
AZ628 + Alpelisib = compound: CC1=C(C=C(C=C1)NC(=O)C2=CC(=CC=C2)C(C)(C)C#N)NC3=CC4=C(C=C3)N=CN(C4=O)C [AZ628] + Cc1nc(NC(=O)N2CCC[C@H]2C(N)=O)sc1-c1ccnc(C(C)(C)C(F)(F)F)c1 [Alpelisib] (partner 2 µM)
Method in brief: (§1)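 For relative viability, nuclei counts in treated wells were divided by those in vehicle wells. Lung cancer cell lines had been pin-tool dosed in 1536-well plates the day after seeding and cultured for 5 days, then fixed and stained in one step (final 0.05% Triton X-100, 1% formaldehyde, 1 ug/ml Hoechst) and imaged at 4×. Doses were one drug alone or a fixed anchor-drug dose plus five library-drug doses (not always all listed) in √10 steps, and values are duplicate-plate medians.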

[1] = compound: C[As](C)SC[C@H](NC(=O)CC[C@H](N)C(=O)O)C(=O)NCC(=O)O [Darinaparsin] + N=C(N)NC(=N)NCCc1ccccc1 [Phenformin] (partner 250 µM)
Method in brief: as §1

Darinaparsin + AZD7762 = compound: C[As](C)SC[C@H](NC(=O)CC[C@H](N)C(=O)O)C(=O)NCC(=O)O [Darinaparsin] + NC(=O)Nc1cc(-c2cccc(F)c2)sc1C(=O)N[C@H]1CCCNC1 [AZD7762] (partner 0.2 µM)
Method in brief: as §1

[2] = compound: C[As](C)SC[C@H](NC(=O)CC[C@H](N)C(=O)O)C(=O)NCC(=O)O [Darinaparsin] + C[C@]1(O)C[C@@H](c2nc(-c3ccc4ccc(-c5ccccc5)nc4c3)c3c(N)nccn32)C1 [Linsitinib] (partner 1 µM)
Method in brief: as §1

Work on LCLC-97TM1 yielded a relative viability (AZ628 + Alpelisib; first compound 0.08 µM) of 0.279, a relative viability (AZ628 + Alpelisib; first compound 0.253 µM) of 0.205 and a relative viability (AZ628 + Alpelisib; first compound 0.8 µM) of 0.195. The relative viability (AZ628 + Alpelisib; first compound 2.53 µM) was 0.232, the relative viability (AZ628 + Alpelisib; first compound 8 µM) was 0.118 and the relative viability ([1]; first compound 0.08 µM) was 0.417. It also gave a relative viability ([1]; first compound 0.8 µM) of 0.412, a relative viability ([1]; first compound 2.53 µM) of 0.444 and a relative viability ([1]; first compound 8 µM) of 0.302. It also gave a relative viability (Darinaparsin + AZD7762; first compound 0.08 µM) of 0.128, a relative viability (Darinaparsin + AZD7762; first compound 0.8 µM) of 0.247 and a relative viability (Darinaparsin + AZD7762; first compound 2.53 µM) of 0.314. For the same cell line, the relative viability (Darinaparsin + AZD7762; first compound 8 µM) was 0.254, the relative viability ([2]; first compound 0.08 µM) was 0.162 and the relative viability ([2]; first compound 0.8 µM) was 0.164. The relative viability ([2]; first compound 2.53 µM) was 0.173 and the relative viability ([2]; first compound 8 µM) was 0.178.
